ChEMBL document CHEMBL1146407, “Taxuspinananes A and B, new taxoids from Taxus cuspidata var. nana” (J Nat Prod, 1997)
In brackets after ≈: the same amount, converted by molar mass.

The compounds below were run on P388 (assay: Cytotoxicity against mouse P388 cells after 48 hrs by MTT assay). Conditions: P388, 48 h.
Type: functional, cell-based

| Compound | IC50 |
| --- | --- |
| CCC(C)CCC(=O)N[C@@H](c1ccccc1)[C@@H](O)C(=O)O[C@H]1C[C@@]2(O)[C@@H](OC(=O)c3ccccc3)[C@@H]3[C@]4(OC(C)=O)CO[C@@H]4C[C@H](O)[C@@]3(C)C(=O)[C@H](OC(C)=O)C(=C1C)C2(C)C (stereo partly drawn) [TAXUSPINANANE A] | 0.01 mg/L (≈ 0.0116 µM) |
| C=C1[C@@H](O)C[C@H](OC(C)=O)[C@@]2(C)[C@@H](OC(C)=O)[C@H](OC(=O)c3ccccc3)C3=C(C)C(=O)C[C@@]3(C(C)(C)O)[C@@H](OC(C)=O)[C@H]12 [13-OXO-TAXCHININ A] | 10 mg/L (≈ 16.3 µM) |
| CC(=O)O[C@H]1C(=O)[C@@]2(C)[C@H]([C@H](OC(=O)c3ccccc3)[C@]3(O)C[C@H](OC(=O)[C@H](O)[C@@H](NC(=O)c4ccccc4)c4ccccc4)C(C)=C1C3(C)C)[C@]1(OC(C)=O)CO[C@@H]1C[C@@H]2O [PACLITAXEL] | 0.03 mg/L (≈ 0.0351 µM) |
